Measurements as given in the supplement of paper PMC10331698.
± gives the standard deviation of the averaged measurements.

Columns and labels:
Experiment in all cases: level (log10 ratio to DMSO vehicle control); higher = higher biomarker level / cell amount than vehicle control
Details in all cases: in DMSO
[1] = compound: COC(=O)CCC(F)(F)C(F)(F)C(F)(F)C(F)(F)F [Methyl 2H,2H,3H,3H-perfluoroheptanoate]
Method: (§1)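 BioMAP Diversity Plus panel of 12 human primary cell co-culture systems (3C, 4H, LPS, SAg, BT, BF4T, BE3C, CASM3C, HDF3CGF, KF3CT, MyoF, Mphg). Compounds were added 1 h before stimulation and left for 24 h (MyoF 48 h; BT 72 h for soluble read-outs or 6 d for IgG). Biomarkers were read by ELISA, cytotoxicity by SRB, PBMC viability and proliferation by Alamar Blue. Each well value was divided by the mean of 8 DMSO control wells on the same plate and log10 transformed; duplicate blinded samples were tested at 4 concentrations.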

[2] = compound: FC(F)(F)C(F)(C(F)(F)F)C(F)(F)C(F)(F)CC1CO1 [3-(Perfluoro-3-methylbutyl)-1,2-propenoxide]
Method: as §1

Perfluoro-1-iodohexane = compound: FC(F)(F)C(F)(F)C(F)(F)C(F)(F)C(F)(F)C(F)(F)I [Perfluoro-1-iodohexane]
Method: as §1

[3] = compound: FC(F)(F)C(F)(F)C(F)(F)C(F)(F)C(F)(F)CCI [1-Iodo-1H,1H,2H,2H-perfluoroheptane]
Method: as §1

[4] = compound: NCC(F)(F)C(F)(F)C(F)(F)C(F)(F)C(F)(F)C(F)(F)C(F)(F)F [1H,1H-Perfluorooctylamine]
Method: as §1

Perfluoroheptanoic acid = compound: O=C(O)C(F)(F)C(F)(F)C(F)(F)C(F)(F)C(F)(F)C(F)(F)F [Perfluoroheptanoic acid]
Method: as §1

Perfluoropropanoic acid = compound: O=C(O)C(F)(F)C(F)(F)F [Perfluoropropanoic acid]
Method: as §1

Test System | level (log10) ([1]; 6700 nM) | level (log10) ([1]; 20000 nM) | level (log10) ([1]; 60000 nM) | level (log10) ([2]; 6700 nM) | level (log10) ([2]; 20000 nM) | level (log10) (Perfluoro-1-iodohexane; 6700 nM) | level (log10) (Perfluoro-1-iodohexane; 20000 nM) | level (log10) (Perfluoro-1-iodohexane; 60000 nM) | level (log10) ([3]; 6700 nM) | level (log10) ([3]; 20000 nM) | level (log10) ([3]; 60000 nM) | level (log10) ([4]; 6700 nM) | level (log10) ([4]; 20000 nM) | level (log10) ([4]; 60000 nM) | level (log10) (Perfluoroheptanoic acid; 6700 nM) | level (log10) (Perfluoroheptanoic acid; 20000 nM) | level (log10) (Perfluoroheptanoic acid; 60000 nM) | level (log10) (Perfluoropropanoic acid; 6700 nM) | level (log10) (Perfluoropropanoic acid; 20000 nM) | level (log10) (Perfluoropropanoic acid; 60000 nM)
lMphg:CD69 | -0.016 ± 0.028 | -0.029 ± 0.033 | 0.006 ± 0.017 | -0.0115 ± 0.054 | -0.0375 ± 0.069 | -0.031 ± 0.048 | -0.0425 ± 0.06 | -0.031 ± 0.045 | -0.0365 ± 0.083 | -0.063 ± 0.072 | -0.0405 ± 0.066 | -0.039 ± 0.0099 | -0.0475 ± 0.019 | -0.0265 ± 0.00071 | -0.019 ± 0.038 | -0.021 ± 0.041 | -0.0205 ± 0.064 | 0.0105 ± 0.059 | -0.022 ± 0.025 | 0.0045 ± 0.029
KF3CT:MMP-9 | -0.012 ± 0.047 | -0.0145 ± 0.035 | -0.024 ± 0.017 | -0.016 ± 0.03 | -0.0265 ± 0.039 | -0.0225 ± 0.0064 | -0.0225 ± 0.0092 | -0.044 ± 0.0099 | -0.017 ± 0.011 | -0.0265 ± 0.025 | -0.029 ± 0.021 | 0.0085 ± 0.0092 | 0.0025 ± 0.0035 | 0.0065 ± 0.005 | -0.0065 ± 0.0078 | 0.0165 ± 0.026 | 0.059 ± 0.025 | -0.0405 ± 0.012 | -0.053 ± 0.035 | -0.0105 ± 0.032
lMphg:CD62E/E-Selectin | -0.004 ± 0.0028 | -0.0245 ± 0.016 | -0.0075 ± 0.018 | 0.0085 ± 0.019 | 0.0025 ± 0.013 | 0.005 ± 0.0042 | 0.018 ± 0.02 | 0.0305 ± 0.033 | -0.021 ± 0.067 | -0.0215 ± 0.018 | -0.028 ± 0.0028 | 0.0195 ± 0.023 | 0.0085 ± 0.015 | 0.013 ± 0.03 | -0.026 ± 0.0028 | 0 ± 0.024 | 0.025 ± 0.018 | -0.008 ± 0.0057 | -0.004 ± 0.0099 | 0.0385 ± 0.0035
MyoF:alpha-SM Actin | -0.009 ± 0.024 | -0.007 ± 0.02 | -0.0035 ± 0.04 | -0.009 ± 0.028 | -0.0295 ± 0.0064 | -0.073 ± 0.021 | -0.173 ± 0.086 | -0.38 ± 0.0092 | -0.0265 ± 0.029 | -0.003 ± 0.018 | -0.009 ± 0.0071 | -0.017 ± 0.075 | 0.0285 ± 0.0078 | 0.042 | -0.028 ± 0.035 | -0.0365 ± 0.022 | -0.022 ± 0.024 | -0.031 ± 0.035 | -0.013 ± 0.017 | 0.011 ± 0.0057
KF3CT:CXCL10/IP-10 | 0.005 ± 0.02 | -0.003 ± 0.0014 | -0.005 ± 0.0014 | -0.009 ± 0.016 | -0.026 ± 0.014 | 0.005 ± 0.0014 | 0.001 ± 0.0028 | 0.0065 ± 0.0092 | 0.0035 ± 0.00071 | 0.001 ± 0.013 | -0.0185 ± 0.00071 | -0.0045 ± 0.00071 | -0.0075 ± 0.011 | -0.003 | -0.003 ± 0.018 | 0.0125 ± 0.026 | 0.0155 ± 0.023 | -0.022 ± 0.033 | 0.004 ± 0.014 | 0.019 ± 0.0085
HDF3CGF:CXCL10/IP-10 | -0.011 ± 0.0085 | 0.006 ± 0.016 | -0.026 ± 0.0071 | 0.003 ± 0.021 | -0.034 ± 0.075 | -0.033 ± 0.014 | -0.0435 ± 0.0035 | -0.114 ± 0.076 | -0.011 ± 0.0099 | -0.053 ± 0.0071 | -0.11 ± 0.023 | 0.0115 ± 0.03 | -0.006 ± 0.011 | -0.0005 ± 0.00071 | -0.0295 ± 0.046 | -0.015 ± 0.016 | -0.0295 ± 0.0092 | -0.005 ± 0.0085 | -0.001 ± 0.0028 | 0.02 ± 0.0071
HDF3CGF:PAI-I | 0.0005 ± 0.0035 | -0.0055 ± 0.0092 | 0.002 ± 0.021 | -0.003 ± 0.028 | 0.0125 ± 0.015 | 0.017 ± 0.011 | 0.005 ± 0.031 | -0.041 ± 0.014 | 0.078 ± 0.02 | 0.0135 ± 0.0078 | 0.0355 ± 0.096 | 0.008 ± 0.033 | -0.018 ± 0.0042 | -0.003 ± 0.023 | -0.017 ± 0.0028 | -0.0215 ± 0.0035 | -0.008 ± 0.041 | -0.07 ± 0.1 | -0.005 ± 0.12 | -0.002 ± 0.04
HDF3CGF:Collagen III | 0.0065 ± 0.016 | 0.0095 ± 0.00071 | 0.0105 ± 0.015 | -0.0295 ± 0.049 | -0.049 ± 0.081 | -0.0405 ± 0.066 | -0.0755 ± 0.0021 | -0.178 ± 0.13 | 0.0695 ± 0.026 | -0.008 ± 0.12 | -0.0595 ± 0.022 | -0.009 ± 0.021 | -0.0055 ± 0.00071 | -0.0165 ± 0.023 | -0.021 ± 0.011 | -0.0385 ± 0.033 | -0.013 ± 0.016 | -0.01 ± 0.1 | -0.0045 ± 0.032 | 0.048 ± 0.013
MyoF:Collagen IV | -0.0335 ± 0.03 | -0.0285 ± 0.021 | -0.0115 ± 0.029 | 0.029 ± 0.024 | 0.057 ± 0.075 | -0.033 ± 0.027 | -0.031 ± 0.028 | 0.193 ± 0.013 | 0.03 ± 0.0071 | 0.0715 ± 0.0035 | 0.072 ± 0.028 | -0.0035 ± 0.018 | -0.009 ± 0.016 | -0.0055 ± 0.0035 | -0.0175 ± 0.022 | -0.014 ± 0.013 | 0.0305 ± 0.07 | 0.0075 ± 0.0021 | -0.007 ± 0.011 | 0.0145 ± 0.019
lMphg:M-CSF | -0.0325 ± 0.0078 | -0.0275 ± 0.005 | 0.0075 ± 0.022 | -0.0215 ± 0.021 | -0.005 ± 0.02 | -0.0095 ± 0.0035 | -0.032 ± 0.016 | 0.0085 ± 0.026 | -0.043 ± 0.03 | -0.0355 ± 0.012 | -0.007 ± 0.013 | -0.024 ± 0.033 | -0.0185 ± 0.005 | -0.0245 ± 0.0021 | -0.006 ± 0.0014 | -0.001 ± 0.016 | 0.005 ± 0.0071 | -0.014 ± 0.0085 | -0.0155 ± 0.00071 | 0.003 ± 0.017
lMphg:SRB | -0.008 ± 0.02 | -0.016 ± 0.0057 | -0.0095 ± 0.023 | -0.007 ± 0.014 | -0.0045 ± 0.0078 | -0.0055 ± 0.00071 | -0.0025 ± 0.0035 | 0.0035 ± 0.0078 | 0.006 ± 0.013 | -0.011 ± 0.0014 | -0.001 ± 0.0057 | -0.008 ± 0.0085 | 0.001 ± 0.0042 | -0.002 ± 0.0099 | -0.013 ± 0.02 | -0.01 ± 0.0028 | -0.002 ± 0.0014 | -0.0065 ± 0.005 | -0.0125 ± 0.0021 | -0.011 ± 0.016
CASM3C:PAI-I | -0.0195 ± 0.0078 | -0.006 ± 0.0099 | -0.0095 ± 0.016 | -0.0025 ± 0.0021 | 0.0045 ± 0.011 | -0.003 ± 0.0071 | -0.007 ± 0.0014 | -0.003 ± 0.0028 | 0.003 ± 0.0042 | 0.001 ± 0.0014 | 0.007 ± 0.0042 | -0.0055 ± 0.012 | 0.0025 ± 0.0064 | -0.0015 ± 0.005 | -0.0005 ± 0.018 | 0.0035 ± 0.011 | 0.0105 ± 0.015 | -0.0035 ± 0.0021 | -0.003 ± 0.0014 | 0.0005 ± 0.0064
CASM3C:SRB | 0.003 ± 0.0042 | -0.003 ± 0.013 | -0.0015 ± 0.0035 | 0.004 ± 0.0042 | -0.001 ± 0.014 | 0.0035 ± 0.013 | 0.0015 ± 0.0021 | -0.0015 ± 0.016 | 0.0035 ± 0.0021 | -0.0075 ± 0.0078 | -0.024 ± 0.0028 | -0.002 ± 0.0028 | -0.001 ± 0.013 | 0.0035 ± 0.018 | -0.008 ± 0.0099 | -0.011 ± 0.0014 | -0.0065 ± 0.012 | 0.0035 ± 0.00071 | -0.0015 ± 0.00071 | -0.0015 ± 0.005
